Literature values as cited in US20080009448A1, “Peptide Derivative” (priority 2006, published 2008).
Non-standard residues stand in square brackets, D forms with d. No end group written: not given here. βAla = NCCC(=O)O

Details: non-patent references 2-7, cited from earlier work

Substance	anti-nociceptive activity compared with morphine on oral administration	anti-nociceptive activity compared with morphine on subcutaneous administration
Y[dR]F[βAla] [TAPA]	almost equal	nine times stronger
Nα-amidine-[Tyr]-[D-Arg]-[Phe]-[N-Methyl-β-Ala]-OH [ADAMB]	about 3.8 times	about 23 times
